32 compounds from patent US12433872B2, “Treatment of Acanthamoeba or Balamuthia trophozoites and/or cysts” (GEORGIA STATE UNIVERSITY RESEARCH FOUNDATION, INC., priority 2018, dated 2025) can be followed below.

Like-named read-outs stand apart in the source and are kept apart here.

Assay [1] concerns Balamuthia mandrillaris trophozoites. Nature of the assay: Activity against Balamuthia mandrillaris trophozoites. The class given is cell-based. The note with it: Balamuthia mandrillaris, read-out: Balamuthia mandrillaris IC50. Here is the method:
Balamuthia mandrillaris trophozoites were thawed and grown in 10 ml of BM-3 medium. […] After autoclaving, complete BM-3 media was produced by the addition of 10% fetal bovine serum and 125 μg of penicillin/streptomycin antibiotics. The table describes all of the compounds and the activity against Balamuthia trophozoites compared to the activity for select Acanthamoeba trophozoites shown in Table 5.

In assay [2] the test system is Acanthamoeba castellanii trophozoites. Kind of assay: Activity against Acanthamoeba castellanii trophozoites. It counts as cell-based. On the procedure:
Two Acanthamoeba species (Acanthamoeba castellanii—ATCC50370 and Acanthamoeba culbertsoni—ATCC30171) were bought from the American Type Culture Collection (ATCC) and one species (Acanthamoeba healyi) was donated from the Centers for Disease Control and Prevention (CDC) for our experimentations. Trophozoites were thawed and grown in 10 mL of a nutrient rich Peptose-Glucose (PG) media. The PG media composition is 83.26 mM Glucose (15 g/L), Protease Peptone (15 g/L, yeast extract is manufactured under controlled conditions to retain its vitamin content and other nutritive values such as free amino acids, no other composition information given), 2.2 mM KH2PO4 (300 mg/L), 2.97 μM Thiamine (1 mg/L), 99.86 μM L-methionine (14.9 mg/L), 4.6 μM Vitamin B12 (83.3 μl of 0.1 mg/mL stock/L) and 68 μM Biotin (83.3 μl of 0.2 mg/mL stock/L). […] One mL/L of the salt solution was added to the media stock prior to autoclaving. All reagents were purchased from Sigma Aldrich except the Glucose which was purchased from Alfa Aesar. The cell pellet was resuspended in a final volume of 10 mL of PG media, cultured in 75 cm^2 coming tissue culture flasks and incubated at 27° C. PG was supplemented with 125 μg of penicillin/streptomycin. Sub-culturing occurred twice per week to allow the continued growth and development of the Acanthamoeba trophozoites. […]

Where [3] appears, read: trophozoites, n = 2, Table 6, read-out: Acanthamoeba castellanii IC50.
The mark [4] stands for this setting: read-out: Acanthamoeba castellanii IC50.

The term IC50 denotes the concentration that gives 50% inhibition. As for `CC(C)NC(=N)c1ccc2nc(-c3ccc(Oc4c(F)cc(-c5nc6ccc(C(=N)NC(C)C)cc6[nH]5)cc4F)c(F)c3)[nH]c2c1` [AC, 2-(3,5-Difluoro-4-(2-fluoro-4-(6-(N-isopropylcarbamimidoyl)-1H-benzo[d]imidazol-2-yl)phenoxy)phenyl)-N-isopropyl-1H-benzo[d]imidazole-6-carboximidamide], the IC50 in assay [1] (trophozoites, n = 2) is 390 nM; in assay [2] (setting [3]), 1030 nM.
Taken in the same sequence, the figures for `COc1ccc(-c2nc3ccc(-c4nc5ccc(C6=NCC(C)(C)CN6)cc5[nH]4)cc3[nH]2)cc1O` [Compound AR, 5-(6-(5,5-dimethyl-1,4,5,6-tetrahydropyrimidin-2-yl)-1H,3′H-[2,5′-bibenzo[d]imidazol]-2′-yl)-2-methoxyphenol] were 660 nM and 2010 nM.
On to `N=C(N)c1ccc2nc(-c3ccc4nc(-c5ccc(C(N)=O)cc5)[nH]c4c3)[nH]c2c1` [AP, 4-(6-carbamimidoyl-1H,3′H-[2,5′-bibenzo[d]imidazol]-2′-yl)benzamide], for which the results for the IC50 in assay [1] and in assay [2] (setting [4]) were 400 nM and 47600 nM, respectively.
With `CC(C)NC(=N)c1ccc2nc(-c3ccc(Oc4ccc(-c5nc6ccc(C(=N)NC(C)C)cc6[nH]5)cc4I)cc3)[nH]c2c1` [AE, 2-(3-Iodo-4-(4-(6-(N-isopropylcarbamimidoyl)-1H-benzo[d]imidazol-2-yl)phenoxy)phenyl)-N-isopropyl-1H-benzo[d]imidazole-6-carboximidamide], the half-maximal inhibitory concentration (IC50) came out at 380 nM in assay [1] (trophozoites, n = 2) and 1090 nM in assay [2] (setting [3]).
For `CC(C)NC(=N)c1ccc2nc(-c3ccc(N(C)c4ccc(-c5nc6ccc(C(=N)NC(C)C)cc6[nH]5)cc4)cc3)[nH]c2c1` [BA], in that order: 50 nM and 1700 nM.
On to `COc1cc(-c2nc3ccc(C(=N)NC(C)C)cc3[nH]2)ccc1Oc1c(F)cc(-c2nc3ccc(C(=N)NC(C)C)cc3[nH]2)cc1F` [Compound AB, 2-(3,5-Difluoro-4-(4-(6-(N-isopropylcarbamimidoyl)-1H-benzo[d]imidazol-2-yl)-2-methoxyphenoxy)phenyl)-N-isopropyl-1H-benzo[d]imidazole-6-carboximidamide], for which the IC50 in assay [1] (trophozoites, n = 2) was 260 nM; in assay [2] (setting [3]), 1440 nM.
In the case of `COc1ccc(-c2nc3ccc(-c4nc5ccc(C(=N)NC6CCC6)cc5[nH]4)cc3[nH]2)cc1O` [Compound AS], the IC50 turned out to be 280 nM in assay [1] (trophozoites, n = 2) and 2400 nM in assay [2] (setting [3]).
As to `CC(C)NC(=N)c1ccc2nc(-c3ccc(Oc4ccc(-c5nc6ccc(C(=N)NC(C)C)cc6[nH]5)cc4Cl)cc3)[nH]c2c1` [Compound AJ], the results for the half-inhibitory concentration (IC50) in assay [1] and in assay [2] (setting [4]) were 50 nM and 460 nM, respectively.
As to `N=C(C1=NCCCN1)c1ccc2nc(-c3ccc4nc(-c5ccccc5)[nH]c4c3)[nH]c2c1` [AL, (2′-phenyl-1H,3′H-[2,5′-bibenzo[d]imidazol]-6-yl)(1,4,5,6-tetrahydropyrimidin-2-yl)methanimine], the IC50 in assay [1] (trophozoites, n = 2) came out at 280 nM; in assay [2] (setting [3]), 2330 nM.
For `COc1ccc(-c2nc3ccc(-c4nc5ccc(C(=N)C6=NCCCN6)cc5[nH]4)cc3[nH]2)cc1O` [AN, 5-(6-(imino(1,4,5,6-tetrahydropyrimidin-2-yl)methyl)-1H,3′H-[2,5′-bibenzo[d]imidazol]-2′-yl)-2-methoxyphenol], in that order: 230 nM and 480 nM.
In the case of `N=C(N)c1ccc(-c2ccc(-c3cc4cc(C(=N)N)ccc4[nH]3)cc2)cc1` [Compound AW], the results for the IC50 in assay [1] and in assay [2] (setting [4]) were 350 nM and 13700 nM, respectively.
As for `CN(C)CCNC(=O)c1ccc(-c2nc3ccc(-c4nc5ccc(C(=N)N)cc5[nH]4)cc3[nH]2)cc1` [Compound AK, 4-(6-carbamimidoyl-1H,3′H-[2,5′-bibenzo[d]imidazol]-2′-yl)-N-(2-(dimethylamino)ethyl)benzamide], the IC50 in assay [1] (trophozoites, n = 2) worked out at 80 nM; in assay [2] (setting [3]), 28800 nM.
Taken in the same sequence, the figures for `N=C(c1ccc2nc(-c3ccc(Oc4ccc(-c5nc6ccc(C(=N)N7CCOCC7)cc6[nH]5)cc4)cc3)[nH]c2c1)N1CCOCC1` [BE] were 380 nM and 4910 nM.
For `CC1CCN(C(=N)c2ccc3nc(-c4ccc(Oc5ccc(-c6nc7ccc(C(=N)N8CCC(C)CC8)cc7[nH]6)cc5)cc4)[nH]c3c2)CC1` [BF], in that order: 410 nM and 3870 nM.
For the compound `CN(C)CCOc1cccc(-c2nc3ccc(-c4nc5ccc(C(=N)N)cc5[nH]4)cc3[nH]2)c1` [AQ, 2′-(3-(2-(dimethylamino)ethoxy)phenyl)-1H,3′H-[2,5-bibenzo[d]imidazole]-6-carboximidamide], the IC50 in assay [1] amounted to 420 nM; in assay [2] (setting [4]), 13200 nM.
For `N=C(NC1CCC1)c1ccc2nc(-c3ccc4nc(-c5cccc(O)c5)[nH]c4c3)[nH]c2c1` [Compound AT], the IC50 in assay [1] (trophozoites, n = 2) was determined as 400 nM; in assay [2] (setting [3]) it was 1250 nM.
For `N=C(NC1CCCC1)c1ccc2nc(-c3ccc(Oc4ccc(-c5nc6ccc(C(=N)NC7CCCC7)cc6[nH]5)cc4)cc3)[nH]c2c1` [BB], in that order: 100 nM and 2990 nM.
As to `N=C(c1ccc2nc(-c3ccc(Oc4ccc(-c5nc6ccc(C(=N)N7CCCCCC7)cc6[nH]5)cc4)cc3)[nH]c2c1)N1CCCCCC1` [BD], the IC50 in assay [1] (trophozoites, n = 2) amounted to 350 nM; in assay [2] (setting [3]) it was 5710 nM.
For `N=C(N)c1ccc(OCc2ccc(-c3ccc(C(=N)N)cc3)cc2)cc1` [Compound AU], in that order: 360 nM and 2440 nM.
`COc1cc(Oc2ccc(-c3nc4ccc(C(=N)NC(C)C)cc4[nH]3)cc2)ccc1-c1nc2ccc(C(=N)NC(C)C)cc2[nH]1` [AI]: the IC50 came out at 70 nM in assay [1] and 2920 nM in assay [2] (setting [4]).
Take `N=C(N)c1ccc(-c2ccc(C(=O)Nc3cccc(C(=N)N)c3)cc2)cc1` [Compound AV]: the IC50 was 680 nM in assay [1] (trophozoites, n = 2) and 370 nM in assay [2] (setting [3]).
Regarding `CC(C)NC(=N)c1ccc2nc(-c3ccc(Oc4ccc(-c5nc6ccc(C(=N)NC(C)C)cc6[nH]5)c(C(F)(F)F)c4)cc3)[nH]c2c1` [Compound AH], the values for the IC50 in assay [1] and in assay [2] (setting [4]) were 90 nM and 1890 nM, respectively.
As for `CC(C)NC(=N)c1ccc2nc(-c3ccc(N(c4ccccc4)c4ccc(-c5nc6ccc(C(=N)NC(C)C)cc6[nH]5)cc4)cc3)[nH]c2c1` [BG], the IC50 amounted to 470 nM in assay [1] (trophozoites, n = 2) and 3100 nM in assay [2] (setting [3]).
On to `N=C(N)c1ccc(-c2ccc(-c3nc4ccc(C(=N)N)cc4[nH]3)cc2)cc1` [Compound AX], for which the IC50 in assay [1] turned out to be 350 nM; in assay [2] (setting [4]) it was 6050 nM.
On to `CC(C)NC(=N)c1ccc2nc(-c3ccc(Oc4ccc(-c5nc6ccc(C(=N)NC(C)C)cc6[nH]5)c(Cl)c4)c(Cl)c3)[nH]c2c1` [AD, 2-(2-Chloro-4-(2-chloro-4-(6-(N-isopropylcarbamimidoyl)-1H-benzo[d]imidazol-2-yl)phenoxy)phenyl)-N-isopropyl-1H-benzo[d]imidazole-6-carboximidamide], for which the IC50 in assay [1] (trophozoites, n = 2) came to 130 nM; in assay [2] (setting [3]) it was 830 nM.
For the compound `CC(C)NC(=N)c1ccc2nc(-c3ccc(Oc4ccc(-c5nc6ccc(C(=N)NC(C)C)cc6[nH]5)cc4C#N)c(F)c3)[nH]c2c1` [X, 2-(3-Cyano-4-(2-fluoro-4-(6-(N-isopropylcarbamimidoyl)-1H-benzo[d]imidazol-2-yl)phenoxy)phenyl)-N-isopropyl-1H-benzo[d]imidazole-6-carboximidamide], the 50% inhibitory concentration (IC50) in assay [1] (trophozoites, n = 2) was found to be 100 nM; in assay [2] (setting [3]), 620 nM.
For `CC(C)NC(=N)c1ccc2nc(-c3ccc(Oc4ccc(-c5nc6ccc(C(=N)NC(C)C)cc6[nH]5)cc4)cc3)[nH]c2c1` [Compound AZ], in that order: 40 nM and 550 nM.
For `N=C(c1ccc2nc(-c3ccc(Oc4ccc(-c5nc6ccc(C(=N)N7CCSCC7)cc6[nH]5)cc4)cc3)[nH]c2c1)N1CCSCC1` [Compound BH], in that order: 500 nM and 17600 nM.
Taken in the same sequence, the figures for `CC(C)NC(=N)c1ccc2nc(-c3ccc(Oc4ccc(-c5nc6ccc(C(=N)NC(C)C)cc6[nH]5)c(Cl)c4)cc3)[nH]c2c1` [Compound AG] were 50 nM and 310 nM.
On to `CC(C)NC(=N)c1ccc2nc(-c3ccc(CCc4ccc(-c5nc6ccc(C(=N)NC(C)C)cc6[nH]5)cc4)cc3)[nH]c2c1` [BC], for which the IC50 in assay [1] (trophozoites, n = 2) was 250 nM; in assay [2] (setting [3]) it was more than 67800 nM.
Taken in the same sequence, the figures for `CC(C)NC(=N)c1ccc2nc(-c3ccc(Oc4ccc(-c5nc6ccc(C(=N)NC(C)C)cc6[nH]5)c(Cl)c4)c(C#N)c3)[nH]c2c1` [AA, 2-(2-Chloro-4-(2-cyano-4-(6-(N-isopropylcarbamimidoyl)-1H-benzo[d]imidazol-2-yl)phenoxy)phenyl)-N-isopropyl-1H-benzo[d]imidazole-6-carboximidamide] were 60 nM and 730 nM.
For `CC(C)NC(=N)c1ccc2nc(-c3ccc(Nc4ccc(-c5nc6ccc(C(=N)NC(C)C)cc6[nH]5)cc4)cc3)[nH]c2c1` [Compound AY], the IC50 in assay [1] (trophozoites, n = 2) was 40 nM; in assay [2] (setting [3]), 5990 nM.
